The record followed here is article PMC10150366, “Discovery of an In Vivo Chemical Probe for BCL6 Inhibition by Optimization of Tricyclic Quinolinones” (Journal of Medicinal Chemistry, 2023).

Assay [1] addresses T1, CHRM1 (Homo sapiens, UniProt P11229).
T1 sequence (P11229 1-460): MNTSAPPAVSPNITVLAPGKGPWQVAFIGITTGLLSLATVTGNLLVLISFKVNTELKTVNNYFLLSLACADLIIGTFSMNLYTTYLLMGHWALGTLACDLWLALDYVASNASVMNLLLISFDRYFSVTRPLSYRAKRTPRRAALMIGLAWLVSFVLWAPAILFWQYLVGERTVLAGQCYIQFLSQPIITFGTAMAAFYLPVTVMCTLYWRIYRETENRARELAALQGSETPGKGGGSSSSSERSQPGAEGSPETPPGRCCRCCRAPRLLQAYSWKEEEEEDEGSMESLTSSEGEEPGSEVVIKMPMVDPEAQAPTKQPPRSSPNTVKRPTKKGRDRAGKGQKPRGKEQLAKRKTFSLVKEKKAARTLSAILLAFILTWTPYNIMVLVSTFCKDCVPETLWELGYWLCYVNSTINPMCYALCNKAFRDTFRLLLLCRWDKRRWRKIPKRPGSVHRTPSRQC
The assay can be described thus: SAFETYscan Calcium Flux CHRM1 Antagonist. In kind it is cell-based. An excerpt: (§1) Supplement jm3c00155_si_002.xlsx, sheet "SAFETYScan" | column: RC50 (uM); Max Response

The target in assay [2] is T2, CCKAR (Homo sapiens, UniProt P32238).
T2 sequence (P32238 1-428): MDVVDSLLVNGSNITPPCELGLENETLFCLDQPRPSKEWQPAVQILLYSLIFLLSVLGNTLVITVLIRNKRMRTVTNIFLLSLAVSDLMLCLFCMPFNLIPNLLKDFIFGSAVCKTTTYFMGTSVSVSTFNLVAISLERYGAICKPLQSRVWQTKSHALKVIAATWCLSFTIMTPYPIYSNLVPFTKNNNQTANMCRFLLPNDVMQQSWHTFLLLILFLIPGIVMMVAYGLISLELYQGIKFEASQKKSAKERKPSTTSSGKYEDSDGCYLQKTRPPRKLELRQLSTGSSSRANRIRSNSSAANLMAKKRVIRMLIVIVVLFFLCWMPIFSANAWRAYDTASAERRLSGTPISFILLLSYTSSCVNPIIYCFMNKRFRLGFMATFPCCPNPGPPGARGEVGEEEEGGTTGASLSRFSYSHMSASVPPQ
Put plainly: SAFETYscan Calcium Flux CCKAR Agonist. In kind it is cell-based.
Description: as §1

Take `Cn1c(=O)c2c(c3cc(Nc4ccnc(F)c4Cl)ccc31)N[C@@H](C1CC1)C(F)(F)CO2` [compound 17, (S)-10-((3-chloro-2-fluoropyridin-4-yl)amino)-2-cyclopropyl-3,3-difluoro-7-methyl-1,2,3,4-tetrahydro-[1,4]oxazepino[2,3-c]quinolin-6(7H)-one]: the IC50 in assay [1] is greater than 10 µM. Also, the Emax in assay [1] (CHRM1, Calcium Flux, Antagonist, read-out: Max Response) turned out to be 1.21%; in assay [2] (read-out: Max Response), 0.06%. In addition, the EC50 in assay [2] (read-out: RC50 (EC50)) is greater than 10 µM.
